# Test results published in patent publication US9266876B2 (Actelion Pharmaceuticals Ltd., priority 2012, dated 2016).
# Read-outs that look alike come from different tables or passages of the source.
# What was measured:
# human CXCR3A = human CXCR3A (Homo sapiens (Human), UniProt P49682); experiment: FLIPR assay; format: cell-based; details: CHO-K1 cells expressing the human CXCR3A coupled to Galpha(16); CXCL10 agonist 20 nM; Fluo-4-AM fluorescence; mean values if determined several times
# Method in brief: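 CHO-K1 cells expressing CXCR3A coupled to Gα16 were loaded with Fluo-4-AM for 1 h in Hepes-buffered HBSS, pH 7.4, with 5 mM probenecid. Compound dilutions were added on the FLIPR, followed by CXCL10 (added as a 20 nM solution). Baseline-subtracted peak fluorescence was fitted to a single-site curve for IC50.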
# CXCR3 = CXCR3 (Homo sapiens (Human), UniProt P49682); experiment: Receptor internalization assay; format: cell-based
# Chain of CXCR3 (P49682 whole entry): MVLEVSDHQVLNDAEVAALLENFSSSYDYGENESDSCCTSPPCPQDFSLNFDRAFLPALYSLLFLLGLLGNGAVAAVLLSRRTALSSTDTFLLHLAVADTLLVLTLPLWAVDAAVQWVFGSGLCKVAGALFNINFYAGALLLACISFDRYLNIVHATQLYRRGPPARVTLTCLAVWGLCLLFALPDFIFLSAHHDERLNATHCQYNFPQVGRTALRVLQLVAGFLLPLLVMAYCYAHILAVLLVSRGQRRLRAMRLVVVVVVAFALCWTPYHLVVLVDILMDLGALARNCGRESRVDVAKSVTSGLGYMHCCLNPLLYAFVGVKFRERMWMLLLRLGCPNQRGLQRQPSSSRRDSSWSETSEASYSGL
# Method in brief: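 In human whole blood, compounds were incubated with CXCL10 (9 nM final) for 30 min at 37 °C to drive receptor internalization, then stained with anti-CXCR3/CD3 antibodies and lysed of red cells. Flow cytometry measured mean surface CXCR3 fluorescence on CD3+ cells, and IC50 came from single-site dose-response fits.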
# [1] = human whole blood, final CXCL10 concentration 9 nM, 30 min 37° C., CXCR3 cell surface expression on CD3 positive cells, flow cytometer, read-out: Internalization IC50
# Chain of human CXCR3A (P49682 whole entry): as above
IC50 (human CXCR3A) [nM],IC50 (CXCR3; [1]) [nM],Compound,IC50 (CXCR3) [nM]
1,809,"C[C@@H]1CN(c2scnc2-c2nc3ccccc3[nH]2)CCN1C(=O)Cn1ncc2cccnc21 [Example 115, 1-{(R)-4-[4-(1H-Benzoimidazol-2-yl)-thiazol-5-yl]-2-methyl-piperazin-1-yl}-2-pyrazolo[3,4-b]pyridin-1-yl-ethanone]",
3,663,"Cc1cccc2oc(=O)n(CC(=O)N3CCN(c4scnc4-c4nc5ccccc5[nH]4)C[C@H]3C)c12 [Example 152, 3-(2-{(R)-4-[4-(1H-Benzoimidazol-2-yl)-thiazol-5-yl]-2-methyl-piperazin-1-yl}-2-oxo-ethyl)-4-methyl-3H-benzooxazol-2-one]",
2,6900,"COC(=O)c1ccn(CC(=O)N2CCN(c3sc(C(F)(F)F)nc3-c3nc4ccccc4[nH]3)C[C@H]2C)n1 [Example 198, 1-(2-{(R)-4-[4-(1H-Benzoimidazol-2-yl)-2-trifluoromethyl-thiazol-5-yl]-2-methyl-piperazin-1-yl}-2-oxo-ethyl)-1H-pyrazole-3-carboxylic acid methyl ester]",
6,1060,"C[C@@H]1CN(c2sc(C(F)(F)F)nc2-c2nc3ccncc3[nH]2)CCN1C(=O)Cn1cnc2cccnc21 [Example 170, 2-Imidazo[4,5-b]pyridin-3-yl-1-{(R)-4-[4-(3H-imidazo[4,5-c]pyridin-2-yl)-2-trifluoromethyl-thiazol-5-yl]-2-methyl-piperazin-1-yl}-ethanone]",
27,2240,"C[C@@H]1CN(c2sc(C(F)(F)F)nc2-c2nc3ccc(CN(C)C)cc3[nH]2)CCN1C(=O)Cn1cccn1 [Example 182, 1-{(R)-4-[4-(6-Dimethylaminomethyl-1H-benzoimidazol-2-yl)-2-trifluoromethyl-thiazol-5-yl]-2-methyl-piperazin-1-yl}-2-pyrazol-1-yl-ethanone]",
2,540,"Cc1ccc2[nH]c(-c3ncsc3N3CCN(C(=O)Cn4c(=O)n(C)c5ccccc54)CC3)nc2c1 [Example 31, 1-Methyl-3-(2-{4-[4-(5-methyl-1H-benzoimidazol-2-yl)-thiazol-5-yl]-piperazin-1-yl}-2-oxo-ethyl)-1,3-dihydro-benzoimidazol-2-one]",
1,221,"CCc1ccc2nc(-c3ncsc3N3CCN(C(=O)Cn4cnc5cccnc54)[C@H](C)C3)[nH]c2c1 [Example 99, 1-{(R)-4-[4-(6-Ethyl-1H-benzoimidazol-2-yl)-thiazol-5-yl]-2-methyl-piperazin-1-yl}-2-imidazo[4,5-b]pyridin-3-yl-ethanone]",
30,3080,"O=C(Cn1cnc2ccccc21)N1CCN(c2scnc2-c2nc3ccccc3[nH]2)CC1 [Example 1, 2-Benzoimidazol-1-yl-1-{4-[4-(1H-benzoimidazol-2-yl)-thiazol-5-yl]-piperazin-1-yl}-ethanone]",
1,1540,"C[C@@H]1CN(c2scnc2-c2nc3ccc(CO)cc3[nH]2)CCN1C(=O)Cn1cnc2cccnc21 [Example 159, 1-{(R)-4-[4-(6-Hydroxymethyl-1H-benzoimidazol-2-yl)-thiazol-5-yl]-2-methyl-piperazin-1-yl}-2-imidazo[4,5-b]pyridin-3-yl-ethanone]",
2,4130,"Cc1cccc2ccn(CC(=O)N3CCN(c4scnc4-c4nc5ccccc5[nH]4)CC3)c12 [Example 57, 1-{4-[4-(1H-Benzoimidazol-2-yl)-thiazol-5-yl]-piperazin-1-yl}-2-(7-methyl-indol-1-yl)-ethanone]",
2,566,"COc1cccc2nc(-c3ncsc3N3CCN(C(=O)Cn4c(=O)n(C)c5ccccc54)CC3)[nH]c12 [Example 30, 1-(2-{4-[4-(7-Methoxy-1H-benzoimidazol-2-yl)-thiazol-5-yl]-piperazin-1-yl}-2-oxo-ethyl)-3-methyl-1,3-dihydro-benzoimidazol-2-one]",
1,121,"C[C@@H]1CN(c2sc(C(F)(F)F)nc2-c2nc3ccccc3[nH]2)CCN1C(=O)Cn1cnc2c1CN(C)CC2 [Example 210, 1-{(R)-4-[4-(1H-Benzoimidazol-2-yl)-2-trifluoromethyl-thiazol-5-yl]-2-methyl-piperazin-1-yl}-2-(5-methyl-4,5,6,7-tetrahydro-imidazo[4,5-c]pyridin-3-yl)-ethanone]",
2,2450,"C[C@@H]1CN(c2scnc2-c2nc3ccccc3[nH]2)CCN1C(=O)Cc1cccc2cccnc12 [Example 119, 1-{(R)-4-[4-(1H-Benzoimidazol-2-yl)-thiazol-5-yl]-2-methyl-piperazin-1-yl}-2-quinolin-8-yl-ethanone]",
0.2,53,"Cc1ccn(CC(=O)N2CCN(c3sc(C(F)(F)F)nc3-c3nc4ccccc4[nH]3)C[C@H]2C)n1 [Example 174, 1-{(R)-4-[4-(1H-Benzoimidazol-2-yl)-2-trifluoromethyl-thiazol-5-yl]-2-methyl-piperazin-1-yl}-2-(3-methyl-pyrazol-1-yl)-ethanone]",
2,72,"Cc1nn(CC(=O)N2CCN(c3sc(C(F)(F)F)nc3-c3nc4ccccc4[nH]3)C[C@H]2C)c(C)c1CN(C)C [Example 214, 1-{(R)-4-[4-(1H-Benzoimidazol-2-yl)-2-trifluoromethyl-thiazol-5-yl]-2-methyl-piperazin-1-yl}-2-(4-dimethylaminomethyl-3,5-dimethyl-pyrazol-1-yl)-ethanone]",
4,1490,"Cc1c(Cl)ccc2nc(-c3ncsc3N3CCN(C(=O)Cn4c(=O)n(C)c5ccccc54)CC3)[nH]c12 [Example 37, 1-(2-{4-[4-(6-Chloro-7-methyl-1H-benzoimidazol-2-yl)-thiazol-5-yl]-piperazin-1-yl}-2-oxo-ethyl)-3-methyl-1,3-dihydro-benzoimidazol-2-one]",
3,2670,"C[C@@H]1CN(c2scnc2-c2nc3ccccc3[nH]2)CCN1C(=O)Cc1noc2ccccc12 [Example 130, 2-Benzo[d]isoxazol-3-yl-1-{(R)-4-[4-(1H-benzoimidazol-2-yl)-thiazol-5-yl]-2-methyl-piperazin-1-yl}-ethanone]",
3,3780,"C[C@@H]1CN(c2scnc2-c2nc3ccccc3[nH]2)CCN1C(=O)Cc1cccc2ccccc12 [Example 118, 1-{(R)-4-[4-(1H-Benzoimidazol-2-yl)-thiazol-5-yl]-2-methyl-piperazin-1-yl}-2-naphthalen-1-yl-ethanone]",
37,6620,"COCCn1c(-c2nc(C(F)(F)F)sc2N2CCN(C(=O)Cn3cccn3)[C@H](C)C2)nc2ccccc21 [Example 185, 1-((R)-4-{4-[1-(2-Methoxy-ethyl)-1H-benzoimidazol-2-yl]-2-trifluoromethyl-thiazol-5-yl}-2-methyl-piperazin-1-yl)-2-pyrazol-1-yl-ethanone]",
2,352,"C[C@@H]1CN(c2scnc2-c2nc3ccccc3[nH]2)CCN1C(=O)Cn1ccc2ccnc(Cl)c21 [Example 142, 1-{(R)-4-[4-(1H-Benzoimidazol-2-yl)-thiazol-5-yl]-2-methyl-piperazin-1-yl}-2-(7-chloro-pyrrolo[2,3-c]pyridin-1-yl)-ethanone]",

Compound,IC50 (human CXCR3A) [nM],IC50 (CXCR3; [1]) [nM],IC50 (CXCR3) [nM]
"C[C@@H]1CN(c2sc(C(F)(F)F)nc2-c2nc3ccccc3[nH]2)CCN1C(=O)Cn1cnc2c1CCN(C)C2 [Example 209, 1-{(R)-4-[4-(1H-Benzoimidazol-2-yl)-2-trifluoromethyl-thiazol-5-yl]-2-methyl-piperazin-1-yl}-2-(5-methyl-4,5,6,7-tetrahydro-imidazo[4,5-c]pyridin-1-yl)-ethanone]",3,101,
"Cc1nc(C)n(CC(=O)N2CCN(c3sc(C(F)(F)F)nc3-c3nc4ccccc4[nH]3)C[C@@H]2C)n1 [Example 243, 1-{(S)-4-[4-(1H-Benzoimidazol-2-yl)-2-trifluoromethyl-thiazol-5-yl]-2-methyl-piperazin-1-yl}-2-(3,5-dimethyl-[1,2,4]triazol-1-yl)-ethanone]",3,1120,
"C[C@@H]1CN(c2sc(C(F)(F)F)nc2-c2nc3cc(Cl)ccc3[nH]2)CCN1C(=O)Cn1cnc2cccnc21 [Example 147, 1-{(R)-4-[4-(5-Chloro-1H-benzoimidazol-2-yl)-2-trifluoromethyl-thiazol-5-yl]-2-methyl-piperazin-1-yl}-2-imidazo[4,5-b]pyridin-3-yl-ethanone]",1,,39
"COc1cc2nc(-c3nc(C(F)(F)F)sc3N3CCN(C(=O)Cn4cnc5cccnc54)[C@H](C)C3)[nH]c2cc1OC [Example 161, 1-{(R)-4-[4-(5,6-Dimethoxy-1H-benzoimidazol-2-yl)-2-trifluoromethyl-thiazol-5-yl]-2-methyl-piperazin-1-yl}-2-imidazo[4,5-b]pyridin-3-yl-ethanone]",2,146,
"Cc1ccc(CC(=O)N2CCN(c3sc(C(F)(F)F)nc3-c3nc4ccccc4[nH]3)C[C@H]2C)cn1 [Example 199, 1-{(R)-4-[4-(1H-Benzoimidazol-2-yl)-2-trifluoromethyl-thiazol-5-yl]-2-methyl-piperazin-1-yl}-2-(6-methyl-pyridin-3-yl)-ethanone]",0.4,658,
"Cc1nc(C)n(CC(=O)N2CCN(c3sc(C(F)(F)F)nc3-c3nc4ccc(C5CCNCC5)cc4[nH]3)C[C@H]2C)n1 [Example 240, 2-(3,5-Dimethyl-[1,2,4]triazol-1-yl)-1-{(R)-2-methyl-4-[4-(6-piperidin-4-yl-1H-benzoimidazol-2-yl)-2-trifluoromethyl-thiazol-5-yl]-piperazin-1-yl}-ethanone]",2,222,
